# Earlier results as cited in US20110302824A1, “PROCESS FOR LIQUEFYING A CELLULOSIC MATERIAL” (SHELL OIL COMPANY, priority 2010, published 2011).
# Conditions: polarity of the (co-)solvent of the liquefaction medium; octanol-water
smiles,measurement,value
"CC1CCC(=O)O1 (centres unmarked) [w/gVL, gamma-valerolactone]",Solvent Log P,−0.6
"CCCCCCCCCCCC [w/C12, dodecane]",Solvent Log P,6.1
